Data as given in patent publication US20100298141A1, “SUBSTITUTED PYRIDINE N-OXIDE HERBICIDES” (E. I. DU PONT DE NEMOURS AND COMPANY, priority 2007, published 2010).

Tests used:
[1] = system: Italian ryegrass (LOLMU); assay: Test I preemergence mixtures of compound 2 with crop safeners; format: in vivo, Lolium multiflorum; details: alone
From the text: Seeds of test plants consisting of winter wheat (TRZAW, Triticum aestivum), corn (ZEAMD, Zea mays cv. ‘Pioneer 33G26’), wild oat (AVEFA, Avena fatua), and Italian ryegrass (LOLMU, Lolium multiflorum) were planted into a blend of loam soil and sand and treated preemergence with a directed soil spray using test chemicals formulated in a non-phytotoxic solvent mixture that included a surfactant. Seeds of small-seeded species were planted about 1 cm deep; larger seeds were planted about 2.5 cm deep. […] Balanced fertilizer was applied through the watering system. Treatments consisted of Compound 2 and the above mentioned safeners alone and in combination using a spray volume of 457 L/ha. Each treatment was replicated four times. Treated plants and controls were maintained in a greenhouse for 14 to 21 days, after which time all species were compared to controls and visually evaluated. […] A dash (-) response means no test result. Colby's Equation was used to determine the herbicidal effects expected from the mixtures. Colby's Equation (Colby, S. […] Pa+b=Pa+Pb−(PaPb/100) wherein • Pa+b is the percentage effect of the mixture expected from additive contribution of the individual components, • Pa is the observed percentage effect of the first active ingredient at the same use rate as in the mixture, and • Pb is the observed percentage effect of the second active ingredient at the same use rate as in the mixture.

[2] = system: winter wheat (TRZAW); assay: Test J preemergence mixtures of Compound 2 with crop safeners; format: in vivo, Triticum aestivum; design: key to TRZAW Obsd. (observed effect): observed % herbicidal effect
From the text: Seeds of test plants consisting of winter wheat (TRZAW, Triticum aestivum) and corn (ZEAMD, Zea mays cv. ‘Pioneer 33G26’) were planted into a blend of loam soil and sand and treated preemergence with a directed soil spray using test chemicals formulated in a non-phytotoxic solvent mixture that included a surfactant. […] Balanced fertilizer was applied through the watering system. Treatments consisted of Compound 2 and the above mentioned safeners alone and in combination using a spray volume of 457 L/ha. Each treatment was replicated four times. […] A dash (-) response means no test result. Colby's Equation was used to determine the herbicidal effects expected from the mixtures. Colby's Equation (Colby, S. […] wherein • Pa+b is the percentage effect of the mixture expected from additive contribution of the individual components, • Pa is the observed percentage effect of the first active ingredient at the same use rate as in the mixture, and Pb is the observed percentage effect of the second active ingredient at the same use rate as in the mixture.

[3] = system: ducksalad; assay: Test E flooded paddy test; format: in vivo, Heteranthera limosa; details: Flood, after 21 days, scale 0 to 100
From the text: (§1) Three plastic pots (ca. 16-cm diameter) per rate were partially filled with sterilized Tama silt loam soil comprising a 35:50:15 ratio of sand, silt and clay and 2.6% organic matter. Separate plantings for each of the three pots were as follows. Seeds from the U.S. of ducksalad (Heteranthera limosa), smallflower umbrella sedge (Cyperus difformis) and purple […] coccinea), were planted into one 16-cm pot for each rate. […] Seeds from the U.S. of barnyardgrass (Echinochloa crus-galli), late watergrass (Echinochloa oryzicola), early watergrass (Echinochloa oryzoides) and junglerice (Echinochloa colona) were planted into one 16-cm pot for each rate. Plantings were sequential so that crop and weed species were at the 2.0 to 2.5-leaf stage at time of treatment. Potted plants were grown in a greenhouse with day/night temperature settings of 30/27° C., and supplemental balanced lighting was provided to maintain a 16-hour photoperiod. Test pots were maintained in the greenhouse until test completion. At time of treatment, test pots were flooded to 3 cm above the soil surface, treated by application of test compounds directly to the paddy water, and then maintained at that water depth for the duration of the test. Effects of treatments on rice and weeds were visually evaluated by comparison to untreated controls after 21 days. […] A dash (-) response means no test result.

[4] = system: smallflower umbrella sedge; assay: Test E flooded paddy test; format: in vivo, Cyperus difformis; details: Flood, after 21 days, scale 0 to 100
From the text: as §1

[5] = system: rice flatsedge; assay: Test E flooded paddy test; format: in vivo, Cyperus iria; details: Flood, after 21 days, scale 0 to 100
From the text: as §1

[6] = system: bearded sprangletop; assay: Test E flooded paddy test; format: in vivo, Leptochloa fascicularis; details: Flood, after 21 days, scale 0 to 100
From the text: as §1

[7] = system: water seeded rice seedlings; assay: Test E flooded paddy test; format: in vivo, Oryza sativa cv. ‘Japonica -M202’; details: Flood, after 21 days, scale 0 to 100
From the text: as §1

[8] = system: transplanted rice seedlings; assay: Test E flooded paddy test; format: in vivo, Oryza sativa cv. ‘Japonica-M202’; details: Flood, after 21 days, scale 0 to 100
From the text: as §1

[9] = system: late watergrass; assay: Test E flooded paddy test; format: in vivo, Echinochloa oryzicola; details: Flood, after 21 days, scale 0 to 100
From the text: as §1

[10] = system: early watergrass; assay: Test E flooded paddy test; format: in vivo, Echinochloa oryzoides; details: Flood, after 21 days, scale 0 to 100
From the text: as §1

[11] = system: junglerice; assay: Test E flooded paddy test; format: in vivo, Echinochloa colona; details: Flood, after 21 days, scale 0 to 100
From the text: as §1

Compound: Cc1cc[n+]([O-])c(S(=O)(=O)Cc2c(C(F)(F)F)nn(C)c2OC(F)F)c1 [Compound 2]
- LOLMU Obsd. (observed effect) ([1]; 125 g a.i./ha): 48
- LOLMU Obsd. (observed effect) ([1]; 250 g a.i./ha): 89
- TRZAW Obsd. (observed effect) ([2]; Test J, alone, 125 g a.i./ha): 100
- Observed effect (Obsd.), TRZAW ([2]; single active ingredient alone at 125 g a.i./ha): 100%

Compound: Cn1nc(C(F)(F)F)c(C[S+]([O-])c2cc(Br)cc[n+]2[O-])c1Cl (racemic) [Compound 35]
- Plant response rating, Ducksalad ([3]; 16 g ai/ha): 0
- Plant response rating, Ducksalad ([3]; 32 g ai/ha): 40
- Plant response rating, Ducksalad ([3]; 64 g ai/ha): 50
- Plant response rating, Ducksalad ([3]; 125 g ai/ha): 60
- Plant response rating, Ducksalad ([3]; 250 g ai/ha): 100
- Plant response rating, Sedge, Umbrella ([4]; 16 g ai/ha): 0
- Plant response rating, Sedge, Umbrella ([4]; 32 g ai/ha): 45
- Plant response rating, Sedge, Umbrella ([4]; 64 g ai/ha): 85
- Plant response rating, Sedge, Umbrella ([4]; 125 g ai/ha): 85
- Plant response rating, Sedge, Umbrella ([4]; 250 g ai/ha): 100
- Plant response rating, Flatsedge, Rice ([5]; 16 g ai/ha): 0
- Plant response rating, Flatsedge, Rice ([5]; 32 g ai/ha): 30
- Plant response rating, Flatsedge, Rice ([5]; 64 g ai/ha): 70
- Plant response rating, Flatsedge, Rice ([5]; 125 g ai/ha): 80
- Plant response rating, Flatsedge, Rice ([5]; 250 g ai/ha): 95
- Plant response rating, Sprangletop, Brdd. ([6]; 16 g ai/ha): 0
- Plant response rating, Sprangletop, Brdd. ([6]; 32 g ai/ha): 90
- Plant response rating, Sprangletop, Brdd. ([6]; 64 g ai/ha): 90
- Plant response rating, Sprangletop, Brdd. ([6]; 125 g ai/ha): 90
- Plant response rating, Sprangletop, Brdd. ([6]; 250 g ai/ha): 90
- Plant response rating, Rice, Waterseeded ([7]; 16 g ai/ha): 0
- Plant response rating, Rice, Waterseeded ([7]; 32 g ai/ha): 0
- Plant response rating, Rice, Waterseeded ([7]; 64 g ai/ha): 0
- Plant response rating, Rice, Waterseeded ([7]; 125 g ai/ha): 20
- Plant response rating, Rice, Waterseeded ([7]; 250 g ai/ha): 30
- Plant response rating, Rice, Transplanted ([8]; 16 g ai/ha): 0
- Plant response rating, Rice, Transplanted ([8]; 32 g ai/ha): 0
- Plant response rating, Rice, Transplanted ([8]; 64 g ai/ha): 0
- Plant response rating, Rice, Transplanted ([8]; 125 g ai/ha): 15
- Plant response rating, Rice, Transplanted ([8]; 250 g ai/ha): 15
- Plant response rating, Watergrass, Late ([9]; 16 g ai/ha): 0
- Plant response rating, Watergrass, Late ([9]; 32 g ai/ha): 0
- Plant response rating, Watergrass, Late ([9]; 64 g ai/ha): 0
- Plant response rating, Watergrass, Late ([9]; 125 g ai/ha): 30
- Plant response rating, Watergrass, Late ([9]; 250 g ai/ha): 60
- Plant response rating, Watergrass, Early ([10]; 16 g ai/ha): 0
- Plant response rating, Watergrass, Early ([10]; 32 g ai/ha): 0
- Plant response rating, Watergrass, Early ([10]; 64 g ai/ha): 0
- Plant response rating, Watergrass, Early ([10]; 125 g ai/ha): 20
- Plant response rating, Watergrass, Early ([10]; 250 g ai/ha): 40
- Plant response rating, Junglerice ([11]; 16 g ai/ha): 0
- Plant response rating, Junglerice ([11]; 32 g ai/ha): 0
- Plant response rating, Junglerice ([11]; 64 g ai/ha): 0
- Plant response rating, Junglerice ([11]; 125 g ai/ha): 0
- Plant response rating, Junglerice ([11]; 250 g ai/ha): 40

Compound: C#CCOc1c(C[S+]([O-])c2cccc[n+]2[O-])c(C(F)(F)F)nn1C (stereo not drawn) [Compound 76]
- Plant response rating, Ducksalad ([3]; 64 g ai/ha): 40
- Plant response rating, Ducksalad ([3]; 125 g ai/ha): 40
- Plant response rating, Ducksalad ([3]; 250 g ai/ha): 40
- Plant response rating, Ducksalad ([3]; 500 g ai/ha): 95
- Plant response rating, Ducksalad ([3]; 1000 g ai/ha): 95
- Plant response rating, Sedge, Umbrella ([4]; 64 g ai/ha): 60
- Plant response rating, Sedge, Umbrella ([4]; 125 g ai/ha): 90
- Plant response rating, Sedge, Umbrella ([4]; 250 g ai/ha): 95
- Plant response rating, Sedge, Umbrella ([4]; 500 g ai/ha): 95
- Plant response rating, Sedge, Umbrella ([4]; 1000 g ai/ha): 95
- Plant response rating, Flatsedge, Rice ([5]; 64 g ai/ha): 85
- Plant response rating, Flatsedge, Rice ([5]; 125 g ai/ha): 95
- Plant response rating, Flatsedge, Rice ([5]; 250 g ai/ha): 95
- Plant response rating, Flatsedge, Rice ([5]; 500 g ai/ha): 100
- Plant response rating, Flatsedge, Rice ([5]; 1000 g ai/ha): 100
- Plant response rating, Sprangletop, Brdd. ([6]; 64 g ai/ha): 20
- Plant response rating, Sprangletop, Brdd. ([6]; 125 g ai/ha): 70
- Plant response rating, Sprangletop, Brdd. ([6]; 250 g ai/ha): 70
- Plant response rating, Sprangletop, Brdd. ([6]; 500 g ai/ha): 65
- Plant response rating, Sprangletop, Brdd. ([6]; 1000 g ai/ha): 65
- Plant response rating, Rice, Waterseeded ([7]; 64 g ai/ha): 10
- Plant response rating, Rice, Waterseeded ([7]; 125 g ai/ha): 10
- Plant response rating, Rice, Waterseeded ([7]; 1000 g ai/ha): 40
- Plant response rating, Rice, Transplanted ([8]; 64 g ai/ha): 10
- Plant response rating, Rice, Transplanted ([8]; 125 g ai/ha): 10
- Plant response rating, Rice, Transplanted ([8]; 1000 g ai/ha): 40
- Plant response rating, Watergrass, Late ([9]; 64 g ai/ha): 0
- Plant response rating, Watergrass, Late ([9]; 125 g ai/ha): 40
- Plant response rating, Watergrass, Late ([9]; 250 g ai/ha): 75
- Plant response rating, Watergrass, Late ([9]; 500 g ai/ha): 95
- Plant response rating, Watergrass, Late ([9]; 1000 g ai/ha): 95
- Plant response rating, Watergrass, Early ([10]; 64 g ai/ha): 0
- Plant response rating, Watergrass, Early ([10]; 125 g ai/ha): 50
- Plant response rating, Watergrass, Early ([10]; 250 g ai/ha): 75
- Plant response rating, Watergrass, Early ([10]; 500 g ai/ha): 100
- Plant response rating, Watergrass, Early ([10]; 1000 g ai/ha): 100
- Plant response rating, Junglerice ([11]; 64 g ai/ha): 0
- Plant response rating, Junglerice ([11]; 125 g ai/ha): 60
- Plant response rating, Junglerice ([11]; 250 g ai/ha): 75
- Plant response rating, Junglerice ([11]; 500 g ai/ha): 100
- Plant response rating, Junglerice ([11]; 1000 g ai/ha): 100
